This passage reports IC50 results from ChEMBL document CHEMBL5728660, “Monosaccharide amine and 3-nitro-2-phenyl-2H-chromene based inhibitors of glucose kinases” (2021).

One may read the IC50 as the midpoint of a concentration-inhibition curve.

This assay in a line: enzyme-inhibition screening assay: The 16 compounds showing substantial inhibition against TcGlcK at compound concentrations of 20 μM were then examined in a confirmatory assay in which the amino sugar analogues were at a concentration of 20 μM and were tested against the assay's only coupling enzyme, G6PDH, to verify enzyme activity; the assay was performed in quadruplicate. […] These confirmed hits included representatives from all three monosaccharide scaffolds tested (i.e., D-GlcN, D-ManN, and D-GalN).

The compound `O=C(N[C@H]1C(O)O[C@H](CO)[C@@H](O)[C@@H]1O)c1ccccc1` (stereo partly specified) displayed an IC50 of 16.1 µM.
